# Assay results published in patent US20250115598A1 (Anaxis Pharma Pty Ltd, priority 2021, published 2025).
# Where two headings read alike, the source gives them in different places.
# Legend:
# U937 cells = experiment: Counter screen: cell viability without the TSQ cocktail (off-target effect); design: species or system human
# Description: • Cell Line ID: U937 human histiocytic leukemia cell line. • Cell Concentration (cells/well): Final cell density is 20000 cells per well. • Cell growth medium: HT-RPMI medium+7.4% Fetal Bovine Serum (FBS). Cells are cultured in Corning 150 cm^2 tissue culture flasks with vented caps at 37° C./5% CO2. • Incubation: Plates were incubated at 37° C./5% CO2 in a humidified incubator for 48 hours following addition of compounds and death stimuli (TSQ cocktail). • Compound concentration: 36 μM starting concentration, 1:3 dilution, 10 point • DMSO final concentration (% v/v): 0.3%. Compounds in TSQ Cocktail (T: TNF; S: Smac Mimetic; Q: Q-VD-OPh) and their Final Concentrations: • hTNF-Fc (100 ng/ml)—produced by standard procedures as shown in Bossen et al., J. Biol. Chem., 2006, 281(20), 13964-13971. • Compound A (500 nM)—Smac mimetic, Tetralogic and SYNthesis med chem • Q-VD-OPh (10 μM)—MP Biomedicals
# The cellular assay was carried out according to the following steps: • 1. Each well was prepared by sequential addition of: • a. DMSO (control; columns 1-2 and 23-24) or compound in DMSO—addition was performed using acoustic transfer of nL volumes of stock compound to give final test concentrations of 36, 12, 4, 1.3, 0.44, 0.148, 0.049, 0.016, 0.005 and 0.002 μM. All wells were backfilled with DMSO to a final total volume in the well of 100 nL. • b. Following compound/DMSO addition in step (a), 40 μL of cell suspension (5×10^5 cells/mL) was added to provide a final cell concentration of 20,000 cells per well, and • c. Following cell addition in step (b), 10 μL of 5×TSQ cocktail (except to positive controls; columns 1 and 23) was added to each well. • 2. After 48 hours, plate was removed from the 37° C. incubator and equilibrated to room temperature for 45 minutes. • 3.15 μL of room temperature CellTitre-Glo2™ (Promega™) was added to each well. • 4. Shook plates for 2 minutes (˜600 rpm) and incubated at room temperature for 15 minutes to allow signal to stabilise. • 5. Read luminescence readout on a plate reader.
# • Assay involving the TSQ cocktail (T: TNF; S: Smac mimetic; Q: Q-VD-OPh): TSQ treatment ensures that cells specifically undergo necroptotic cell death. TNF activates the TNF receptor, Smac mimetic directs the signal away from proinflammatory signaling and toward the RIPK1/RIPK3-mediated cell death pathways, and Q-VD-OPh ensures that the apoptotic response is blocked leaving only the programmed necrosis response. The compounds' activity (solution in DMSO) tested in this TSQ-induced assay was evaluated by determining the number of viable cells in culture by measuring the amount of ATP present as measured by CelltiterGlo. • Counter screen: In parallel, all compounds were tested for their ability to affect cell viability. The same U937 cells were treated with compound in DMSO without the TSQ cocktail. This counter screen enabled evaluation of off-target effects. In this case, cell viability was measured by CelltiterGlo.
# human RIPK1 = human RIPK1 (Homo sapiens (Human), UniProt Q13546); experiment: KINOMEscan binding assay, human RIPK1; details: Table 21
# How it was run: (§1)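 In this assay, compounds displace DNA- or phage-tagged kinase from an immobilized ligand, and eluted kinase is quantified by qPCR.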
# human RIPK3 = human RIPK3 (Homo sapiens (Human), UniProt Q9Y572); experiment: KINOMEscan binding assay, human RIPK3; details: Table 21
# How it was run: as §1
# human MLKL (full length) = human MLKL (full length) (Homo sapiens (Human), UniProt Q8NB16); experiment: KINOMEscan binding assay, human MLKL (full length); details: hMLKL, Table 25; read-out: MLKL (KD)
# How it was run: as §1
# [1] = tested on: Immortalised Mouse Dermal Fibroblasts (MDFs); experiment: Cellular assay: inhibition of TSI induced necroptosis, CellTitre-Glo viability; details: Mus musculus, Fibroblast; MDF, 3 hours TSI cocktail, Table 27; read-out: Inhibition of TSI-induced necroptosis (IC50 cell-based assay) in MDF
# How it was run: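 Necroptosis induced for 3 h with TSI: rhTNF 100 ng/ml, Smac mimetic 500 nM, caspase inhibitor IDN-6556 10 μM. Mouse dermal fibroblasts had received compound (36 μM top, ten three-fold steps) 30 min beforehand. ATP-based viability scaled between untreated and TSI-only wells; IC50 taken as 4-parameter curve inflection.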
# endogenous MLKL in U937 = endogenous MLKL in U937 (Homo sapiens (Human), UniProt Q8NB16); experiment: Degradation assay: endogenous MLKL in U937 (western blot); details: U937, 24 h incubation, read-out: Degradation of endogenous MLKL in U937 (DC50 cell-based assay)
# How it was run: (§2)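 Western blot band intensity of MLKL, adjusted to GAPDH loading and normalized to DMSO-only wells, gave percent degradation. Compound exposure lasted 24 h at final concentrations of 10–0.016 μM in 1:5 steps, in mouse dermal fibroblasts or human U937 cells.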
# endogenous MLKL in MDF = endogenous MLKL in MDF (Mus musculus (Mouse), UniProt Q9D2Y4); experiment: Degradation assay: endogenous MLKL in MDF (western blot); details: MDF cells, 24 h incubation with compound, MLKL adjusted for loading with GAPDH, normalized to DMSO only control, read-out: Degradation of endogenous MLKL in MDF (DC50 cell-based assay)
# How it was run: as §2
# [2] = Homo sapiens, U-937, Table 23, read-out: Off-target effect (IC50 cell-based assay)
# Chain of endogenous MLKL in MDF (Q9D2Y4 whole entry): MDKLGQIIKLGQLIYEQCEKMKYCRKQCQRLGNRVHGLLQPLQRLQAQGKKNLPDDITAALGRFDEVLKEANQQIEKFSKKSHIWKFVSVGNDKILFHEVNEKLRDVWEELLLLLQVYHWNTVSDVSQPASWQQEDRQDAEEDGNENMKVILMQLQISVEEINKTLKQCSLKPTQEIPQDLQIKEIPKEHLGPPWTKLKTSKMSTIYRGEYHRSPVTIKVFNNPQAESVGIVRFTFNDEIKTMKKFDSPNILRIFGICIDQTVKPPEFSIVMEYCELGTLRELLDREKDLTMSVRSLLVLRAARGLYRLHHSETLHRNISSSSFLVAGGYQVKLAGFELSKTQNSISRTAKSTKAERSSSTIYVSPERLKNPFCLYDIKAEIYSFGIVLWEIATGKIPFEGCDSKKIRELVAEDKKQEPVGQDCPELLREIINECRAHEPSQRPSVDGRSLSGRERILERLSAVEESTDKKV
# Chain of endogenous MLKL in U937 (Q8NB16 whole entry): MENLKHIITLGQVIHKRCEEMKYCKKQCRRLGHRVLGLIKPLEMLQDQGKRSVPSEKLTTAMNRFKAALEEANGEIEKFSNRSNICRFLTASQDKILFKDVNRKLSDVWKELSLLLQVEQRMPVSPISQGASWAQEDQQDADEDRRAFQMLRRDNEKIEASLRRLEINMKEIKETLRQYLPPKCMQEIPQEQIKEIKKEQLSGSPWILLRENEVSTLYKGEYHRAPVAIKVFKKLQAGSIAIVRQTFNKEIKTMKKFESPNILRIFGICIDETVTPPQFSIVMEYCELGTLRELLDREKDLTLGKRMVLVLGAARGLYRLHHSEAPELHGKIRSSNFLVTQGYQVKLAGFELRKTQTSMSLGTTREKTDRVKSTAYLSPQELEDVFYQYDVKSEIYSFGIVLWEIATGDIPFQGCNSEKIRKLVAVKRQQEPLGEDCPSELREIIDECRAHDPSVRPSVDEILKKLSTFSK
# Chain of human MLKL (full length) (Q8NB16 whole entry): as above
# Chain of human RIPK1 (Q13546 whole entry): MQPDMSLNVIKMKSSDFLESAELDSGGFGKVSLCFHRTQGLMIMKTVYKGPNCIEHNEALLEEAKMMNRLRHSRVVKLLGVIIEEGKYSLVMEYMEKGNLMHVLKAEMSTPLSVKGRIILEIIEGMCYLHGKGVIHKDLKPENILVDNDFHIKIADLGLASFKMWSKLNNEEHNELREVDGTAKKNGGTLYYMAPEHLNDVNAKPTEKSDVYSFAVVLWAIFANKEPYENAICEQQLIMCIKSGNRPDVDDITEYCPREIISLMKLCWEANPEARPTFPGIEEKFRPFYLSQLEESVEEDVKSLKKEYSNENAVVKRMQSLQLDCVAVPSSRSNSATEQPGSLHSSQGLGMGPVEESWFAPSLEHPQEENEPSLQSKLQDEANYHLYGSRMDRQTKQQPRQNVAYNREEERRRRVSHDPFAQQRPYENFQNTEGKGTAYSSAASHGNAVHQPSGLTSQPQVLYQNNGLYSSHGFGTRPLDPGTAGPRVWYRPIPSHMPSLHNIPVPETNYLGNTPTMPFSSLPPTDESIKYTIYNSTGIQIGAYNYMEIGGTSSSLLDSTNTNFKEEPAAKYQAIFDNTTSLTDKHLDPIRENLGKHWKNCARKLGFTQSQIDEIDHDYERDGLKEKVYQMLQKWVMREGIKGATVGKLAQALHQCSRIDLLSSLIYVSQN
# Chain of human RIPK3 (Q9Y572 whole entry): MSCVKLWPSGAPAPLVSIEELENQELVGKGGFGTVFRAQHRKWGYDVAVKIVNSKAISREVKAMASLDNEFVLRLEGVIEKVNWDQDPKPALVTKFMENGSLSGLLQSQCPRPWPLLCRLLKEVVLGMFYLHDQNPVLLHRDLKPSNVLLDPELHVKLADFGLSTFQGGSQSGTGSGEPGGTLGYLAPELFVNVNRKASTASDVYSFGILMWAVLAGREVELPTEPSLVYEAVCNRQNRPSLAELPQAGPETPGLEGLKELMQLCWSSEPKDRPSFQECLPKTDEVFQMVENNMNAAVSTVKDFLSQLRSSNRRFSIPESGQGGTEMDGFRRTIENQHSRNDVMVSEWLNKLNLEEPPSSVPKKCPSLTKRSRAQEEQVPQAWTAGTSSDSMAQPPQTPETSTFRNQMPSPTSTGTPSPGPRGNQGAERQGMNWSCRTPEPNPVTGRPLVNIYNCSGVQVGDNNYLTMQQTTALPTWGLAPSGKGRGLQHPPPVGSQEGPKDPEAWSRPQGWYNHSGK
SMILES,IC50 (U937 cells; [2]) [nM],"IC50 (U937 cells; Table 23, read-out: Off-target effect (IC50 cell-based assay)) [nM]",Kd (human RIPK1) [nM],Kd (human RIPK3) [nM],Kd (human MLKL (full length)) [nM],IC50 [1] [nM],DC50 (endogenous MLKL in U937) [nM],DC50 (endogenous MLKL in MDF) [nM]
"C[C@H](Oc1cc(-c2nn(C)c3c(-c4cnn(C5CCN(C)C6(CC6)C5)c4)cnc(N)c23)ccc1NS(=O)(=O)C(F)F)c1ccc(F)cc1 (single isomer, unassigned) [Compound 170, N-(4-(4-amino-1-methyl-7-(1-((S*)-4-methyl-4-azaspiro[2.5]octan-7-yl)-1H-pyrazol-4-yl)-1H-pyrazolo[4,3-c]pyridin-3-yl)-2-((S)-1-(4-fluorophenyl)ethoxy)phenyl)-1,1-difluoromethanesulfonamide]",> 10000,–,–,–,–,–,–,–
"C[C@H](Oc1cc(-c2nn(C)c3c(-c4cnn(C5CCN(C)C6(CC6)C5)c4)cnc(N)c23)ccc1NS(=O)(=O)C(F)F)c1ccc(F)cc1 (single isomer, unassigned) [Compound 171, N-(4-(4-amino-1-methyl-7-(1-((R*)-4-methyl-4-azaspiro[2.5]octan-7-yl)-1H-pyrazol-4-yl)-1H-pyrazolo[4,3-c]pyridin-3-yl)-2-((S)-1-(4-fluorophenyl)ethoxy)phenyl)-1,1-difluoromethanesulfonamide]",–,> 10000,–,–,–,–,–,–
"C[C@H](Oc1cc(-c2nn(C)c3c(-c4ccnc(C(C)(C)C)c4)cnc(N)c23)ccc1NS(=O)(=O)C(F)F)c1ccc(F)cc1 [Compound 48, (S)-N-(4-(4-amino-7-(2-(tert-butyl)pyridin-4-yl)-1-methyl-1H-pyrazolo[4,3-c]pyridin-3-yl)-2-(1-(4-fluorophenyl)ethoxy)phenyl)-1,1-difluoromethanesulfonamide]",1000 to 10000,–,> 10000,> 10000,–,–,–,–
"Cn1nc(-c2ccc(NS(=O)(=O)C(F)F)c(F)c2)c2c(N)ncc(-c3cnn(C4CCN(Cc5cccc(CNc6cccc7c6C(=O)N(C6CCC(=O)NC6=O)C7=O)c5)CC4)c3)c21 (stereo not drawn) [Compound 1122, N-(4-{4-amino-7-[1-(1-{[3-({[2-(2,6-dioxopiperidin-3-yl)-1,3-dioxo-2,3-dihydro-1H-isoindol-4-yl]amino}methyl)phenyl]methyl}piperidin-4-yl)-1H-pyrazol-4-yl]-1-methyl-1H-pyrazolo[4,3-c]pyridin-3-yl}-2-fluorophenyl)-1,1-difluoromethanesulfonamide]",–,–,–,–,< 10,1000 to 10000,< 1000,1000 to 10000
"C[C@H](Oc1cc(-c2nn(C)c3c(-c4cnn(C5CCN(CCc6ccc7c(c6)C(=O)N(C6CCC(=O)NC6=O)C7=O)CC5)c4)cnc(N)c23)ccc1NS(=O)(=O)C(F)F)c1ccc(F)cc1 (stereo partly drawn) [Compound 1123, N-(4-{4-amino-7-[1-(1-{2-[2-(2,6-dioxopiperidin-3-yl)-1,3-dioxo-2,3-dihydro-1H-isoindol-5-yl]ethyl}piperidin-4-yl)-1H-pyrazol-4-yl]-1-methyl-1H-pyrazolo[4,3-c]pyridin-3-yl}-2-[(1S)-1-(4-fluorophenyl)ethoxy]phenyl)-1,1-difluoromethanesulfonamide]",–,–,–,–,< 10,< 1000,< 1000,< 1000
"C[C@H](Oc1cc(-c2nn(C)c3c(-c4cnn(C5CCN(C(=O)C6CCC(c7cccc8c7C(=O)N(C7CCC(=O)NC7=O)C8=O)CC6)CC5)c4)cnc(N)c23)ccc1NS(=O)(=O)C(F)F)c1ccc(F)cc1 (stereo partly drawn) [Compound 1125, N-(4-{4-amino-7-[1-(1-{4-[2-(2,6-dioxopiperidin-3-yl)-1,3-dioxo-2,3-dihydro-1H-isoindol-4-yl]cyclohexane-carbonyl}piperidin-4-yl)-1H-pyrazol-4-yl]-1-methyl-1H-pyrazolo[4,3-c]pyridin-3-yl}-2-[(1S)-1-(4-fluorophenyl)ethoxy]phenyl)-1,1-difluoromethanesulfonamide]",–,–,–,–,10 to 1000,< 1000,< 1000,< 1000
"C[C@H](Oc1cc(-c2nn(C)c3c(-c4cnn(C5CCN(C(=O)C6CCC(c7ccc8c(c7)C(=O)N(C7CCC(=O)NC7=O)C8=O)CC6)CC5)c4)cnc(N)c23)ccc1NS(=O)(=O)C(F)F)c1ccc(F)cc1 (stereo partly drawn) [Compound 1126, N-(4-{4-amino-7-[1-(1-{4-[2-(2,6-dioxopiperidin-3-yl)-1,3-dioxo-2,3-dihydro-1H-isoindol-5-yl]cyclohexanecarbonyl}piperidin-4-yl)-1H-pyrazol-4-yl]-1-methyl-1H-pyrazolo[4,3-c]pyridin-3-yl}-2-[(1S)-1-(4-fluorophenyl)ethoxy]phenyl)-1,1-difluoromethanesulfonamide]",–,–,–,–,< 10,< 1000,< 1000,< 1000
C[C@H](Oc1cc(-c2nn(C)c3c(-c4cnn(C5CCC(C(=O)N6CCC(c7cccc8c7C(=O)N(C7CCC(=O)NC7=O)C8=O)CC6)CC5)c4)cnc(N)c23)ccc1NS(=O)(=O)C(F)F)c1ccc(F)cc1 (stereo partly drawn) [Compound 1127],–,–,–,–,10 to 1000,< 1000,< 1000,< 1000
"Cn1nc(-c2ccc(NS(=O)(=O)C(F)F)c(F)c2)c2c(N)ncc(-c3cnn(C4CCN(C(=O)N5CCN(c6cccc7c6C(=O)N(C6CCC(=O)NC6=O)C7=O)CC5)CC4)c3)c21 (stereo not drawn) [Compound 1131, N-(4-{4-amino-7-[1-(1-{4-[2-(2,6-dioxopiperidin-3-yl)-1,3-dioxo-2,3-dihydro-1H-isoindol-4-yl]piperazine-1-carbonyl}piperidin-4-yl)-1H-pyrazol-4-yl]-1-methyl-1H-pyrazolo[4,3-c]pyridin-3-yl}-2-fluorophenyl)-1,1-difluoromethanesulfonamide]",–,–,–,–,< 10,1000 to 10000,< 1000,< 1000
"Cn1nc(-c2ccc(NS(=O)(=O)CC(F)(F)F)c(F)c2)c2c(N)ncc(-c3cnn(C4CCN(C(=O)[C@H]5C[C@H](Nc6cccc7c6C(=O)N(C6CCC(=O)NC6=O)C7=O)C5)CC4)c3)c21 (stereo partly drawn) [Compound 1134, N-{4-[4-amino-1-methyl-7-(1-{1-[(trans)-3-{[2-(2,6-dioxopiperidin-3-yl)-1,3-dioxo-2,3-dihydro-1H-isoindol-4-yl]amino}cyclobutanecarbonyl]piperidin-4-yl}-1H-pyrazol-4-yl)-1H-pyrazolo[4,3-c]pyridin-3-yl]-2-fluorophenyl}-2,2,2-trifluoroethane-1-sulfonamide]",–,–,–,–,< 10,< 1000,< 1000,< 1000
